Active and inactive are the calls of the source. The calls are words filed in the database; no cut-off is given here.
Legend:
[1] = Cytotoxicity against human PMBC after 48 hrs by modified MTT assay
[2] = tested on: K562; test: Cytotoxicity against human K562 cells after 48 hrs by modified MTT assay; format: functional, cell-based; details: K562, 48 h
[3] = tested on: K562; test: Induction of apoptosis in human K562 cells assessed as subdiploid peak at 7.8 uM after 12 to 24 hrs by propidium iodide staining-based FACS analysis; format: functional, cell-based
[4] = tested on: K562; test: Induction of apoptosis in human K562 cells assessed as effector caspases activity using Ac-DEVD-AMC as substrate after 48 hrs by fluorimetry; format: functional, cell-based
[5] = tested on: K562; test: Cell cycle arrest in human K562 cells assessed as accumulation at G2/M phase at 7.8 uM after 6 hrs by propidium iodide staining-based FACS analysis; format: functional
[6] = tested on: K562; test: Induction of apoptosis in human K562 cells assessed as increase in effector caspases activity using Ac-DEVD-AMC as substrate after 3 to 24 hrs by fluorimetry; format: functional, cell-based
[7] = tested on: K562; test: Induction of apoptosis in human K562 cells assessed as chromatin condensation at 7.8 uM after 12 to 24 hrs by TUNEL assay; format: functional, cell-based
[8] = tested on: K562; test: Induction of apoptosis in human K562 cells assessed as DNA fragmentation at 7.8 uM after 12 to 24 hrs by TUNEL assay; format: functional, cell-based
[9] = tested on: K562; test: Ratio of IC50 for human PMBC to IC50 for human K562 cells
[10] = tested on: K562; test: Induction of cell cycle arrest in human K562 cells assessed as complete arrest at G2/M phase at 0.25 uM after 12 hrs by propidium iodide staining-based FACS analysis; format: functional
[11] = tested on: K562; test: Induction of apoptosis in human K562 cells assessed as appearance of apoptotic bodies at 0.25 uM after 24 to 48 hrs by TUNEL assay; format: functional, cell-based
[12] = tested on: K562; test: Induction of apoptosis in human K562 cells assessed as chromatin condensation at 0.25 uM after 24 to 48 hrs by TUNEL assay; format: functional, cell-based
[13] = tested on: K562; test: Induction of cell cycle arrest in human K562 cells assessed as accumulation at G2/M phase at 0.25 uM after 6 hrs by propidium iodide staining-based FACS analysis; format: functional

In the case of CCN(CC)CCCNc1nc2c(Nc3cccc(Cl)c3)c3ccccc3nc2s1, the IC50 [1] is reported as 28.7 µM, the IC50 [2] is reported as 7.82 µM and the Activity [3] is reported as “Active”. The Activity [4] was “inactive”, the Activity [5] was “Active” and the Activity [6] was “Active”. The Activity [7] was “Active”, the Activity [8] was “Active” and the “Ratio IC50” value [9] was 4.

In the case of CC(=O)O[C@H]1C(=O)[C@@]2(C)[C@H]([C@H](OC(=O)c3ccccc3)[C@]3(O)C[C@H](OC(=O)[C@H](O)[C@@H](NC(=O)c4ccccc4)c4ccccc4)C(C)=C1C3(C)C)[C@]1(OC(C)=O)CO[C@@H]1C[C@@H]2O, the Activity [10] is reported as “Active”, the Activity [11] is reported as “Active” and the Activity [12] is reported as “Active”. The Activity [13] was “Active”.
